Activity calls are given as the source filed them. No cut-off for these calls is given here.
Assays:
Rattus norvegicus [1] = test: Anti-ulcerative colitis activity in acetic acid-induced ulcerative colitis Wistar rat model assessed as reduction in blood content in feces with parrot green to green dotted colour at 400 mg/kg,po administrated for 14 days; format: functional, organism-based; conditions: time 14.0 day
Rattus norvegicus [2] = test: Anti-ulcerative colitis activity in acetic acid-induced ulcerative colitis Wistar rat model assessed as change in stool uniformity at 400 mg/kg, po administrated for 14 days; format: functional, organism-based; conditions: time 14.0 day
Rattus norvegicus [3] = test: Anti-ulcerative colitis activity in acetic acid-induced ulcerative colitis Wistar rat model assessed as body weight recovery measured as body weight gain at 400 mg/kg, po administrated for 14 days relative to control; format: functional; conditions: time 14 day
Rattus norvegicus [4] = test: Anti-ulcerative colitis activity in acetic acid-induced ulcerative colitis Wistar rat model assessed as reduction in sub-mucosal edema in colon at 400 mg/kg, po administrated for 14 days by microscopic analysis; format: functional, organism-based; conditions: time 14.0 day
Rattus norvegicus [5] = test: Anti-ulcerative colitis activity in acetic acid-induced Wistar rat ulcerative colitis model assessed as reduction in infiltration of inflammatory cells in colon at 400 mg/kg, po administrated for 14 days by microscopic analysis; format: functional, organism-based; conditions: time 14.0 day
Rattus norvegicus [6] = test: Anti-ulcerative colitis activity in acetic acid-induced ulcerative colitis Wistar rat model assessed as reduction in diarrhea at 400 mg/kg, po administrated for 14 days and measured during initial 5 to 6 days of treatment; format: functional, organism-based; conditions: time 5-6 day
Rattus norvegicus [7] = test: Anti-ulcerative colitis activity in acetic acid-induced ulcerative colitis Wistar rat model assessed as reduction in acetic acid-induced lipid peroxidation by measuring reduction in MDA level in colon at 400 mg/kg, po administrated for 14 days; format: functional, organism-based; conditions: time 14.0 day
Rattus norvegicus [8] = test: Anti-ulcerative colitis activity in acetic acid-induced ulcerative colitis Wistar rat model assessed as reduction in damage of mucosa in colon at 400 mg/kg, po administrated for 14 days by microscopic analysis; format: functional, organism-based; conditions: time 14.0 day
Rattus norvegicus [9] = test: Anti-ulcerative colitis activity in acetic acid-induced ulcerative colitis Wistar rat model assessed as reduction in acetic acid-induced oxidative stress by measuring increase in SOD level in colon at 400 mg/kg, po administrated for 14 days by UV spectrophotometric analysis; format: functional, organism-based; conditions: time 14.0 day
Rattus norvegicus [10] = test: Anti-ulcerative colitis activity in acetic acid-induced ulcerative colitis Wistar rat model assessed as mild deformation of mucosal layer with disruption of epithelium in colon at 400 mg/kg, po administrated for 14 days by microscopic analysis; format: functional, organism-based; conditions: time 14.0 day
Rattus norvegicus [11] = test: Anti-ulcerative colitis activity in acetic acid-induced ulcerative colitis Wistar rat model assessed as reduction in onset of diarrhea at 400 mg/kg, po administrated for 14 days and measured during initial 8 to 9 days of treatment; format: functional, organism-based; conditions: time 8-9 day
[12] = Toxicity in albino rat assessed as lethality at 2000 mg/kg; format: organism-based; conditions: in vivo
Rattus norvegicus [13] = test: Anti-ulcerative colitis activity in acetic acid-induced ulcerative colitis Wistar rat model assessed as normal mucosa without cryptic loss in colon at 400 mg/kg, po administrated for 14 days by microscopic analysis; format: functional, organism-based; conditions: time 14.0 day
[14] = Toxicity in albino rat assessed as toxic signs at 300 mg/kg observed for 14 days; format: organism-based; conditions: in vivo, 336 h, time 14 day
Rattus norvegicus [15] = test: Anti-ulcerative colitis activity in acetic acid-induced ulcerative colitis Wistar rat model assessed as decrease in bleeding at 400 mg/kg, po administrated for 14 days and measured during initial 4-5 days of treatment; format: functional, organism-based; conditions: time 4-5 day
[16] = Toxicity in albino rat assessed as behavioral changes at 300 mg/kg observed for 14 days; format: organism-based; conditions: in vivo, 336 h, time 14 day
Rattus norvegicus [17] = test: Anti-ulcerative colitis activity in acetic acid-induced ulcerative colitis Wistar rat model assessed as reduction in blood content in feces without change in feces colour at 400 mg/kg, po administrated for 14 days; format: functional, organism-based; conditions: time 14.0 day
[18] = Toxicity in albino rat assessed as toxic symptoms at 300 mg/kg observed for 14 days; format: organism-based; conditions: in vivo, 336 h, time 14 day
Rattus norvegicus [19] = test: Anti-ulcerative colitis activity in acetic acid-induced ulcerative colitis Wistar rat model assessed as restoration of normal stool consistency at 400 mg/kg, po administrated for 14 days and measured during initial 4-5 days of treatment; format: functional, organism-based; conditions: time 4-5 day

Structure (SMILES) | Activity (Rattus norvegicus [1]) | Activity (Rattus norvegicus [2]) | Activity (Rattus norvegicus [3]) [%] | Activity (Rattus norvegicus [4]) | Activity (Rattus norvegicus [5]) | Activity (Rattus norvegicus [6]) | Activity (Rattus norvegicus [7]) | Activity (Rattus norvegicus [8]) | Activity (Rattus norvegicus [9]) | Activity (Rattus norvegicus [10]) | Activity (Rattus norvegicus [11]) | Activity [12] | Activity (Rattus norvegicus [13]) | Activity [14] | Activity (Rattus norvegicus [15]) | Activity [16] | Activity (Rattus norvegicus [17]) | Activity [18] | Activity (Rattus norvegicus [19])
Nc1ccc(O)c(C(=O)O)c1 [MESALAMINE] | Active | Active | 88 | Active | Active | Active | Active | Active | Active | inactive | Active |  |  |  |  |  |  |  | 
Cc1cc(=O)oc2c(/N=N/c3ccc(O)c(C(=O)O)c3)c(O)ccc12 |  | Active | 92 |  |  | Active | Active |  | Active |  | Active | Toxic | Active | Non-Toxic | Active | Non-Toxic | Active | Non-Toxic | Active

Reference: ChEMBL document CHEMBL4814055, “Design, synthesis and molecular modeling studies of novel mesalamine linked coumarin for treatment of inflammatory bowel disease” (Bioorg Med Chem Lett, 2021)
